Legend:
Assay in all cases: relative viability (nuclei count vs DMSO), 5 days (fraction); higher = more cells survive
[1] = compound: CO[C@@H]1[C@H](N(C)C(=O)c2ccccc2)C[C@H]2O[C@]1(C)n1c3ccccc3c3c4c(c5c6ccccc6n2c5c31)C(=O)NC4 [Midostaurin]
In short: (§1)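 Viability is treated-well nuclei as a fraction of vehicle-well nuclei, reported as the median across plates. Before counting, lung cancer cell lines were kept overnight at 37 °C in 1536-well plates, pinned with five √10-spaced library-drug doses on vehicle-anchored plates, and left 5 days without medium change, then fixed, permeabilised and Hoechst-stained in one step, imaged at 4× and counted by MetaXpress. A plate passed only if control CV was below 25% and at least one doubling occurred.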

[2] = compound: COc1cc(-c2nn([C@H]3CC[C@H](N4CCN(C(C)=O)CC4)CC3)c3ncnc(N)c23)ccc1NC(=O)c1cc2ccccc2n1C
In short: as §1

[3] = compound: CO[C@@H]1[C@H](N(C)C(=O)c2ccccc2)C[C@H]2O[C@]1(C)n1c3ccccc3c3c4c(c5c6ccccc6n2c5c31)C(=O)NC4 [Midostaurin] + CC(=O)Nc1cccc(-n2c(=O)n(C3CC3)c(=O)c3c(Nc4ccc(I)cc4F)n(C)c(=O)c(C)c32)c1 [Trametinib] (partner 0.02 µM)
In short: (§2)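 Nuclei were stained with Hoechst during a one-step fixation (final 0.05% Triton X-100, 1% formaldehyde, 1 ug/ml Hoechst) carried out 5 days after dosing, then counted on 4× images. The cells, lung cancer lines in 1536-well plates, had been dosed by pin tool the day after seeding with one drug alone or a fixed anchor-drug dose plus five library-drug doses (not always all listed) in √10 steps. Relative viability is the nuclei count in treated wells divided by that in vehicle wells, and each value is the median of duplicate plates.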

[4] = compound: COc1cc(-c2nn([C@H]3CC[C@H](N4CCN(C(C)=O)CC4)CC3)c3ncnc(N)c23)ccc1NC(=O)c1cc2ccccc2n1C + NC(=O)Nc1cc(-c2cccc(F)c2)sc1C(=O)N[C@H]1CCCNC1 [AZD7762] (partner 0.2 µM)
In short: as §2

[5] = compound: COc1cc(-c2nn([C@H]3CC[C@H](N4CCN(C(C)=O)CC4)CC3)c3ncnc(N)c23)ccc1NC(=O)c1cc2ccccc2n1C + CC1(C)CCC(c2ccc(Cl)cc2)=C(CN2CCN(c3ccc(C(=O)NS(=O)(=O)c4ccc(N[C@H](CCN5CCOCC5)CSc5ccccc5)c(S(=O)(=O)C(F)(F)F)c4)cc3)CC2)C1 [Navitoclax] (partner 0.5 µM)
In short: as §2

Row | Cell Line | relative viability ([1]; 0.01 µM) | relative viability ([1]; 0.03162 µM) | relative viability ([1]; 0.1 µM) | relative viability ([1]; 0.3162 µM) | relative viability ([2]; 0.0128 µM) | relative viability ([2]; 0.04048 µM) | relative viability ([2]; 0.128 µM) | relative viability ([2]; 1.28 µM) | relative viability ([3]; first compound 0.01 µM) | relative viability ([3]; first compound 0.03162 µM) | relative viability ([3]; first compound 0.1 µM) | relative viability ([3]; first compound 0.3162 µM) | relative viability ([4]; first compound 0.0128 µM) | relative viability ([4]; first compound 0.04048 µM) | relative viability ([4]; first compound 0.128 µM) | relative viability ([4]; first compound 1.28 µM) | relative viability ([5]; first compound 0.0128 µM) | relative viability ([5]; first compound 0.04048 µM) | relative viability ([5]; first compound 0.128 µM) | relative viability ([5]; first compound 1.28 µM)
1 | NCI-H1792 | 0.954 | 0.697 | 0.929 | 0.777 | 0.975 | 0.878 | 1.02 | 0.951 | 0.508 | 0.37 | 0.383 | 0.338 | 0.646 | 0.679 | 0.632 | 0.517 | 0.611 | 0.499 | 0.609 | 0.624
2 | PC-3 [JPC-3] | 0.991 | 0.907 | 1.07 | 1.1 | 1.01 | 1.09 | 1.01 | 1.09 | 0.684 | 0.722 | 0.699 | 0.814 | 0.654 | 0.877 | 0.834 | 0.76 | 0.904 | 0.803 | 0.776 | 0.86
3 | EMC-BAC-2 | 0.928 | 0.903 | 0.858 | 0.954 | 1.04 | 1.17 | 0.941 | 0.957 | 0.853 | 0.791 | 0.876 | 0.699 | 1.13 | 1.28 | 1.09 | 1.09 | 1.19 | 1.08 | 1.15 | 1.05
4 | LK-2 | 0.998 | 1.04 | 0.947 | 1 | 1 | 0.949 | 0.943 | 0.794 | 0.767 | 0.713 | 0.855 | 0.618 | 0.485 | 0.243 | 0.321 | 0.188 | 1.04 | 0.861 | 0.621 | 0.685
5 | NCI-H2126 | 1.02 | 0.872 | 0.999 | 1.02 | 1.04 | 1.01 | 0.963 | 0.792 | 0.509 | 0.562 | 0.553 | 0.597 | 1.06 | 0.988 | 0.976 | 0.817 | 0.858 | 0.863 | 0.79 | 0.641
6 | NCI-H3122 | 1.03 | 0.962 | 0.95 | 1.05 | 1.07 |  | 0.987 | 0.76 | 0.244 | 0.191 | 0.214 | 0.264 | 1.06 |  | 0.958 | 0.845 | 1.03 |  | 1.01 | 0.869
7 | NCI-H1975 | 0.888 | 0.971 | 0.878 | 0.799 | 0.958 | 0.972 | 0.875 | 0.479 | 0.344 | 0.388 | 0.357 | 0.416 | 0.761 | 0.731 | 0.632 | 0.429 | 1.11 | 1.17 | 1.08 | 0.697
8 | NCI-H1944 | 0.963 | 0.987 | 0.931 | 1.15 | 1.09 | 0.983 | 0.921 | 0.769 | 0.419 | 0.398 | 0.39 | 0.413 | 0.605 | 0.539 | 0.485 | 0.352 | 1.04 | 0.999 | 0.982 | 0.764
9 | LU99A | 0.881 | 1.14 | 0.887 | 0.939 | 1.03 | 0.84 | 0.998 | 0.982 | 0.592 | 0.558 | 0.421 | 0.456 | 0.327 | 0.404 | 0.352 | 0.35 | 0.854 | 0.842 | 0.773 | 0.815
10 | NCI-H2347 | 1.12 | 0.97 | 1.06 | 1.09 | 1.01 | 0.781 | 1.04 | 1.08 | 0.29 | 0.278 | 0.309 | 0.337 | 0.773 | 0.55 | 0.64 | 0.565 | 0.864 | 0.794 | 0.769 | 0.858
11 | HCC-15 | 1.05 | 0.902 | 1.05 | 1.05 | 1.21 | 0.785 | 0.971 | 1.06 | 0.411 | 0.353 | 0.367 | 0.372 | 1.46 | 1.24 | 1.21 | 1.28 | 0.755 | 0.59 | 0.672 | 0.454
12 | HCC-44 | 1 | 0.965 | 0.996 | 0.985 | 1.06 | 1.13 | 0.954 | 1.17 | 1.05 | 1.01 | 1.06 | 1.05 | 1.13 | 1.17 | 0.981 | 1.19 | 1.13 | 0.913 | 1.02 | 0.934
13 | HCC-78 | 1.01 | 0.814 | 1.03 | 0.606 | 1.06 | 1.06 | 0.912 | 0.567 | 0.757 | 0.612 | 0.739 | 0.463 | 0.52 | 0.851 | 0.52 | 0.331 | 0.947 | 0.901 | 0.87 | 0.621
14 | NCI-H727 | 1.03 | 0.82 | 1.05 | 0.767 | 0.974 |  | 0.826 | 0.906 | 0.381 | 0.444 | 0.369 | 0.375 | 0.562 |  | 0.716 | 0.575 | 0.408 |  | 0.463 | 0.289
15 | NCI-H2087 | 0.972 | 0.938 | 0.985 | 1.26 | 1.09 |  | 1.1 | 1.11 | 0.178 | 0.221 | 0.187 | 0.273 | 1.31 |  | 1.18 | 1.08 | 1.03 | 0.908 | 1.02 | 1.2
16 | BEN | 0.98 | 0.964 | 1.03 | 1.19 | 0.816 | 0.985 | 0.884 | 0.702 | 1.05 | 0.976 | 1.06 | 1.25 | 0.532 | 0.729 | 0.591 | 0.671 | 0.062 | 0.261 | 0.0628 | 0.0568
17 | EKVX | 0.991 | 0.886 | 0.95 | 1 | 0.941 | 1.06 | 0.987 | 0.56 | 0.321 | 0.348 | 0.292 | 0.351 | 0.79 | 0.691 | 0.685 | 0.385 | 1.05 | 1.03 | 0.957 | 0.384
18 | LXF-289 | 1.03 | 1.01 | 0.973 | 1.03 | 1.11 | 0.989 | 1.01 | 1.06 | 0.687 | 0.653 | 0.671 | 0.685 | 1.29 | 0.964 | 1.04 | 1.14 | 1.01 | 0.886 | 0.967 | 0.959
19 | NCI-H2085 | 1.06 | 0.889 | 1.02 | 0.919 | 1.01 | 1.01 | 0.99 | 0.992 | 0.526 | 0.53 | 0.471 | 0.608 | 1.08 | 0.929 | 0.854 | 0.427 | 1.16 | 1.23 | 1.19 | 1.01
20 | NCI-H1793 | 1.16 | 0.848 | 0.89 | 0.762 | 0.904 | 0.827 | 0.858 | 0.649 | 0.403 | 0.402 | 0.438 | 0.428 | 0.591 | 0.341 | 0.326 | 0.192 | 0.5 | 0.571 | 0.332 | 0.258
21 | LC-2-ad | 0.97 | 0.936 | 0.957 | 0.892 | 1.09 | 0.976 | 0.959 | 0.958 | 0.906 | 0.918 | 0.749 | 0.9 | 0.86 | 0.846 | 0.789 | 0.646 | 0.509 | 0.429 | 0.473 | 0.389
22 | NCI-H1355 | 1 | 0.948 | 1.09 | 1.04 | 1.06 | 0.981 | 0.943 | 0.953 | 0.413 | 0.459 | 0.477 | 0.487 | 0.75 | 0.788 | 0.654 | 0.619 | 1.02 | 0.923 | 0.928 | 0.967
23 | H3255 | 0.971 | 0.948 | 0.876 | 0.966 | 0.996 | 0.962 | 0.946 | 0.763 | 0.61 | 0.608 | 0.656 | 0.628 | 0.879 | 0.87 | 0.894 | 0.633 | 0.398 | 0.441 | 0.466 | 0.259
24 | NCI-H1993 | 0.948 | 1.01 | 1.17 | 0.802 | 0.966 | 0.737 | 0.834 | 0.87 | 0.484 | 0.537 | 0.447 | 0.462 | 0.823 | 0.549 | 0.715 | 0.752 | 0.898 | 0.886 | 0.873 | 0.709
25 | NCI-H1734 | 0.939 | 0.939 | 0.998 | 0.871 | 1 | 0.944 | 0.948 | 0.783 | 0.625 | 0.678 | 0.691 | 0.685 | 0.614 | 0.519 | 0.578 | 0.508 | 0.879 | 0.719 | 0.744 | 0.736
26 | HOP-62 | 0.88 | 0.893 | 1.06 | 1.1 | 1.11 | 0.962 | 1.03 | 1.12 | 0.473 | 0.42 | 0.362 | 0.362 | 0.74 | 0.555 | 0.661 | 0.566 | 1.06 | 1.18 | 0.825 | 1.1
27 | LOU-NH91 | 1.02 | 0.89 | 0.967 | 1 | 0.985 | 1.04 | 0.978 | 0.853 | 0.758 | 0.717 | 0.814 | 0.804 | 0.813 | 0.796 | 0.732 | 0.658 | 0.658 | 0.661 | 0.768 | 0.638

— the supplement of paper PMC10307832
